Measured values as given in the kinase profiling compilation of Christmann-Franck et al. (2016).

Assays:
Experiment in all cases: radiometric filter-binding kinase assay, Kinaseprofiler
[1] = tested on: DDR2 (human), Q16832 [S642A]; settings: ATP 200 µM
[2] = tested on: EPHB2 (human), P29323 [A848S/K918E]; settings: ATP 10 µM
[3] = tested on: MAPK9 (human), P45984 [S51N]; settings: ATP 45 µM
MTOR FKBP1A (human) = MTOR FKBP1A (human) (UniProt P42345+P62942); settings: ATP 45 µM
[4] = target: PRKAA2 PRKAB1 PRKAG1 (human) (UniProt P54619+P54646+Q9Y478); settings: ATP 45 µM
CDK2 CCNE1 (human) = CDK2 CCNE1 (human) (UniProt P24941+P24864); settings: ATP 120 µM
CDK7 CCNH MNAT1 (human) = CDK7 CCNH MNAT1 (human) (UniProt P50613+P51948+P51946); settings: compound 10.0 µM; ATP 90 µM
CDK3 CCNE1 (human) = CDK3 CCNE1 (human) (UniProt Q00526+P24864); settings: ATP 200 µM
CDK2 CCNA2 (human) = CDK2 CCNA2 (human) (UniProt P24941+P20248); settings: ATP 45 µM
Chain of CDK2 CCNA2 (human) (P20248 whole entry, looked up, other chains not shown): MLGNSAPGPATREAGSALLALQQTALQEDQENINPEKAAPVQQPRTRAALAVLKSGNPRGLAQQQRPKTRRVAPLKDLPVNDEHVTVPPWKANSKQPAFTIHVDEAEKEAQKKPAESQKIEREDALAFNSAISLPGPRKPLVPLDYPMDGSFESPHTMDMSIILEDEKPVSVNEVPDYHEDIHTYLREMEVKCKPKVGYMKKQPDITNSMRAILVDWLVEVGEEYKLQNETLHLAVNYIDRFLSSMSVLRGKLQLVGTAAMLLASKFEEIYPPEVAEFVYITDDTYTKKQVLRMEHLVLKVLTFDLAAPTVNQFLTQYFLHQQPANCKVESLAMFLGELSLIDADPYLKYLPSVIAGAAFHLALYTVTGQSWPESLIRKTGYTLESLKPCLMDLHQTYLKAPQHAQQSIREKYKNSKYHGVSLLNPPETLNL

Chain of DDR2 (human), Q16832 [S642A] (Q16832 whole entry, looked up, stated change not applied): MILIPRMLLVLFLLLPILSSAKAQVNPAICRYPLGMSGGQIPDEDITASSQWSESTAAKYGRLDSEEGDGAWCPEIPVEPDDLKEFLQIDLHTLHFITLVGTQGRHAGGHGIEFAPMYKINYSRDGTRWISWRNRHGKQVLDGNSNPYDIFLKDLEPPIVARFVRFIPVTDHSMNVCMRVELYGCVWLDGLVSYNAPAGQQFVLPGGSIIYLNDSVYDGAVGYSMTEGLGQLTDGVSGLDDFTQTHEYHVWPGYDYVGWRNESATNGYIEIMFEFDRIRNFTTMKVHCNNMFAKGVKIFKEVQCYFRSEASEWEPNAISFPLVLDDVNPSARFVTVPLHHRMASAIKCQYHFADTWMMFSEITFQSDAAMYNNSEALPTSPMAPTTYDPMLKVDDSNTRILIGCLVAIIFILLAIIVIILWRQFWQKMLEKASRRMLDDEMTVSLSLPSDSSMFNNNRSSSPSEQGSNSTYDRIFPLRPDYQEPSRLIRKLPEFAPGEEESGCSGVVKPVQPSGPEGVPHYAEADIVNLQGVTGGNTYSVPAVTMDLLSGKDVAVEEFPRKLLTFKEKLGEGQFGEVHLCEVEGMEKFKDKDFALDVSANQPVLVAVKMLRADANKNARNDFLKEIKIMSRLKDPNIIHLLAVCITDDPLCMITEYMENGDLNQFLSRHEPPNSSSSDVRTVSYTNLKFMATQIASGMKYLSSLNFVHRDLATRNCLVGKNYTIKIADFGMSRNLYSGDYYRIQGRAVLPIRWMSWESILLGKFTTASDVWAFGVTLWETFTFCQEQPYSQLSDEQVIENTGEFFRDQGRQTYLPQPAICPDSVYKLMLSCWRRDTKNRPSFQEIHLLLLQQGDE
Chain of CDK3 CCNE1 (human) (P24864 whole entry, looked up): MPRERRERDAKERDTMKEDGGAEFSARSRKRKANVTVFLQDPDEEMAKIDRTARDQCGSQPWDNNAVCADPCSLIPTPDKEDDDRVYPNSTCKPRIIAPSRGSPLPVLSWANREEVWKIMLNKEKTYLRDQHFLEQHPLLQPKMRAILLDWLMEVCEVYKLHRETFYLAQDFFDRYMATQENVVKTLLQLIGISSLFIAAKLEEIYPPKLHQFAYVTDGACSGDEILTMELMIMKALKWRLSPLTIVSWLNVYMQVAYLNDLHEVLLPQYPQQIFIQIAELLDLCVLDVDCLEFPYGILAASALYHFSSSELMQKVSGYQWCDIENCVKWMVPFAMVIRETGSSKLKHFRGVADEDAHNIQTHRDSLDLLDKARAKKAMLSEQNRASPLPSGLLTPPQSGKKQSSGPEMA
Chain of CDK3 CCNE1 (human) (Q00526 whole entry, looked up): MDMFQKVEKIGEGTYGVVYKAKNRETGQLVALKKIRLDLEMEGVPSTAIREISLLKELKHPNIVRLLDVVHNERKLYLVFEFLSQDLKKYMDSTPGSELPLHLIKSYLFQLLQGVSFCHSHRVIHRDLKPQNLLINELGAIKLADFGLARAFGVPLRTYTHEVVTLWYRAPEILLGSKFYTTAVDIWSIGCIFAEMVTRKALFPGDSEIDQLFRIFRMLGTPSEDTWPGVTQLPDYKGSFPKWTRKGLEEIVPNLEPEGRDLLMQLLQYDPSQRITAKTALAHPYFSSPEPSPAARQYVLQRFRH
Chain of CDK2 CCNE1 (human) (P24864 whole entry, looked up, other chains not shown): as the sequence (P24864 whole entry, looked up) above
Chain of PRKAA2 PRKAB1 PRKAG1 (human) (P54619 whole entry, looked up): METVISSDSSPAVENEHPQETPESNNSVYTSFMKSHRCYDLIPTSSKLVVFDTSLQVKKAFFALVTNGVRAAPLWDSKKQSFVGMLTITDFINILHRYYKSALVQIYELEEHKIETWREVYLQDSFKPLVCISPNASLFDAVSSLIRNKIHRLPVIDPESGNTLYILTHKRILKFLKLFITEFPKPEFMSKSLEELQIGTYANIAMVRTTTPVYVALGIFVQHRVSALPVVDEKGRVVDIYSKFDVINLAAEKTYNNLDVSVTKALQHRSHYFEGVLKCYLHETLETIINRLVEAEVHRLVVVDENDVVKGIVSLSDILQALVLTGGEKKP
Chain of PRKAA2 PRKAB1 PRKAG1 (human) (P54646 whole entry, looked up): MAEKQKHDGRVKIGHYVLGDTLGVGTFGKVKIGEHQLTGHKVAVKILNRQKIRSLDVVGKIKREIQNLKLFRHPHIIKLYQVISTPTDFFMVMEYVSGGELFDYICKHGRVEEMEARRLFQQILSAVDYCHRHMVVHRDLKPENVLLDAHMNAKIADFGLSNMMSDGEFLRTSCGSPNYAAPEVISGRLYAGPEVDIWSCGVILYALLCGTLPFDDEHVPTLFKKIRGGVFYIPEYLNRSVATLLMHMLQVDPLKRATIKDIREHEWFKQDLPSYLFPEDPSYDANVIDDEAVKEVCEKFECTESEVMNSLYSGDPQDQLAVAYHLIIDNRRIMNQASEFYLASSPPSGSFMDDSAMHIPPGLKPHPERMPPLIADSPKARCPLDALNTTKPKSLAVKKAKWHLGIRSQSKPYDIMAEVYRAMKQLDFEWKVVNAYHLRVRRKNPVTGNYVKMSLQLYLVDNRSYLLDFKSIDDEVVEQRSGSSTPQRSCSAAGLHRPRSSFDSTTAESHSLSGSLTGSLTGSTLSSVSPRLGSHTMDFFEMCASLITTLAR
Chain of PRKAA2 PRKAB1 PRKAG1 (human) (Q9Y478 whole entry, looked up): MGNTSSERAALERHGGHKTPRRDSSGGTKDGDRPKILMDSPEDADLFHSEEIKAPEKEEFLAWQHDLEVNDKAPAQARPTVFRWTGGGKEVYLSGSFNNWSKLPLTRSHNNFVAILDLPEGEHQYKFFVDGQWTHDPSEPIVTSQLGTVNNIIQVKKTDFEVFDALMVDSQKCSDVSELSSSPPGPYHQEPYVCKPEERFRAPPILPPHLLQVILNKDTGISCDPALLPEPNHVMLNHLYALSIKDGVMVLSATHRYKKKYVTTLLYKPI
Chain of MTOR FKBP1A (human) (P62942 whole entry, looked up, other chains not shown): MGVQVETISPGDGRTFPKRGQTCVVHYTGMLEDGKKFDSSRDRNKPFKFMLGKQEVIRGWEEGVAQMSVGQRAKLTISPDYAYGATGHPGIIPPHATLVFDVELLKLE
Chain of CDK7 CCNH MNAT1 (human) (P50613 whole entry, looked up): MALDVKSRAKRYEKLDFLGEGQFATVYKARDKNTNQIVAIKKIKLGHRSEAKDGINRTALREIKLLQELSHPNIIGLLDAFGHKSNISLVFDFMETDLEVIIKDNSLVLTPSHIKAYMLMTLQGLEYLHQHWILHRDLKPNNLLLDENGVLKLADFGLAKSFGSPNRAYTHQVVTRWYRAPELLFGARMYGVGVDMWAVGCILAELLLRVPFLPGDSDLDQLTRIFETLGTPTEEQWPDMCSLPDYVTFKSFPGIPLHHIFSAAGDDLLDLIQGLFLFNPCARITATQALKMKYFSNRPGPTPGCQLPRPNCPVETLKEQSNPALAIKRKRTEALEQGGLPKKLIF
Chain of CDK7 CCNH MNAT1 (human) (P51946 whole entry, looked up): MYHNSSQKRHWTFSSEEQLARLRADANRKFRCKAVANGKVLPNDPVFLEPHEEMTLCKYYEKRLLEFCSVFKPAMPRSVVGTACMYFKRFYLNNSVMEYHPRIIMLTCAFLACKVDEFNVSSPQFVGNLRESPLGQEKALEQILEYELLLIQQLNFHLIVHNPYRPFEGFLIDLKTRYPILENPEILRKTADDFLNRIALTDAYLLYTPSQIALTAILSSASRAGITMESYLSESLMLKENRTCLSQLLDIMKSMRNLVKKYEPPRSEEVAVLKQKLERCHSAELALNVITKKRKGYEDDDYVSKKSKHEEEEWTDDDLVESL
Chain of CDK7 CCNH MNAT1 (human) (P51948 whole entry, looked up): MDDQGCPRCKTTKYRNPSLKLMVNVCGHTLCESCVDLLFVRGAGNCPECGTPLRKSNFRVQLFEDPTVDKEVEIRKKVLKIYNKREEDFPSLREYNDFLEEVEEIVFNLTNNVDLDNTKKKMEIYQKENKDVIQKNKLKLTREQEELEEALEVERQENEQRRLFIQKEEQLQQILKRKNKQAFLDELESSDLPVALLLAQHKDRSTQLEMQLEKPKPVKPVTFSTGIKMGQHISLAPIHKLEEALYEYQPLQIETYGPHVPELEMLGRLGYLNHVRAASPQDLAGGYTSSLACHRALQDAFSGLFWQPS

O=C1Nc2ccccc2/C1=C1\Nc2ccccc2\C1=N/O
residual activity ([1]; compound 1.0 µM): 94% | residual activity ([1]; compound 10.0 µM): 87% | residual activity ([2]; compound 1.0 µM): 91% | residual activity ([2]; compound 10.0 µM): 13% | residual activity ([3]; compound 1.0 µM): 55% | residual activity ([3]; compound 10.0 µM): 17%

COC(=O)[C@]1(O)C[C@@H]2O[C@@]1(C)n1c3ccccc3c3c4c(c5c6ccccc6n2c5c31)C(=O)NC4
residual activity ([3]; compound 10.0 µM): -11%

CO[C@H]1[C@@H](OC)C[C@H](C)[C@@H](OC)C2=CC(=O)C=C(NC(=O)/C(C)=C\C=C/[C@H](OC)[C@@H](OC(N)=O)/C(C)=C\[C@@H]1C)C2=O
residual activity (MTOR FKBP1A (human); compound 1.0 µM): 77% | residual activity (MTOR FKBP1A (human); compound 10.0 µM): 89% | residual activity ([4]; compound 1.0 µM): 92% | residual activity ([4]; compound 10.0 µM): 78% | residual activity (CDK2 CCNE1 (human); compound 1.0 µM): 104% | residual activity (CDK2 CCNE1 (human); compound 10.0 µM): 91% | residual activity (CDK7 CCNH MNAT1 (human)): 101% | residual activity (CDK3 CCNE1 (human); compound 1.0 µM): 100% | residual activity (CDK3 CCNE1 (human); compound 10.0 µM): 87% | residual activity (CDK2 CCNA2 (human); compound 1.0 µM): 138% | residual activity (CDK2 CCNA2 (human); compound 10.0 µM): 83%

CN[C@@H]1C[C@H]2O[C@@](C)([C@@H]1OC)n1c3ccccc3c3c4c(c5c6ccccc6n2c5c31)C(=O)NC4
residual activity ([3]; compound 1.0 µM): 52%

O=C1c2ccccc2-c2n[nH]c3cccc1c23
residual activity ([1]; compound 1.0 µM): 93% | residual activity ([1]; compound 10.0 µM): 92% | residual activity ([2]; compound 1.0 µM): 101% | residual activity ([2]; compound 10.0 µM): 95% | residual activity ([3]; compound 1.0 µM): 26% | residual activity ([3]; compound 10.0 µM): -6%

O=C(Nc1cccc(Nc2nccc(Nc3cccc(C(F)(F)F)c3)n2)c1)C1CC1
residual activity ([1]; compound 10.0 µM): 35%
